In PubChem BioAssay (NCI):
Values joined by “and” are separate entries in the source; they are usually repeats but may differ in a detail not shown here. Identical values can stand only once.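 Tested at 5 concentrations; 48 h exposure; 96-well plates; endpoints linearly interpolated, else capped at highest concentration. Abbreviation: GI50, concentration required for 50% inhibition of growth. TGI is the concentration that stops growth completely.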

How the values were obtained:
Experiment in all cases: NCI tumour cell line growth inhibition, 48 h
786-0 renal = system: 786-0 renal
CCRF-CEM leukemia = system: CCRF-CEM leukemia
KM12 colon = system: KM12 colon
NCI-H522 lung = system: NCI-H522 lung
SF-268 CNS = system: SF-268 CNS
SK-MEL-28 melanoma = system: SK-MEL-28 melanoma
SN12C renal = system: SN12C renal
SR leukemia = system: SR leukemia
UACC-257 melanoma = system: UACC-257 melanoma
PC-3 prostate = system: PC-3 prostate

SMILES | TGI (786-0 renal) | TGI (CCRF-CEM leukemia) | TGI (KM12 colon) | TGI (NCI-H522 lung) | TGI (SF-268 CNS) | TGI (SK-MEL-28 melanoma) | TGI (SN12C renal) | TGI (SR leukemia) | TGI (UACC-257 melanoma) | GI50 (786-0 renal) | GI50 (CCRF-CEM leukemia) | GI50 (KM12 colon) | GI50 (NCI-H522 lung) | GI50 (PC-3 prostate) | TGI (PC-3 prostate) | GI50 (SF-268 CNS) | GI50 (SN12C renal) | GI50 (UACC-257 melanoma) | GI50 (SK-MEL-28 melanoma)
CCOC(=O)NC1CC2CCC1(OC)C=C2C (stereo unspecified) | > 100 µM | > 100 µM | > 100 µM | > 100 µM | > 100 µM | > 100 µM | > 100 µM | > 100 µM | > 100 µM |  |  |  |  |  |  |  |  |  | 
COC(=O)Cc1cc(=O)n2c([nH]c3ccccc32)c1C#N | > 100 µM |  | > 100 µM |  | > 100 µM | > 100 µM | > 100 µM | > 100 µM | > 100 µM |  |  |  |  |  |  |  |  |  | 
Cc1ccccc1NC(=O)c1ccc([N+](=O)[O-])cc1 | > 100 µM | > 100 µM | > 100 µM | > 100 µM | > 100 µM | > 100 µM | > 100 µM |  | > 100 µM |  |  |  |  |  |  |  |  |  | 
CC1=Nc2ccccc2C12C(c1ccccc1)C(c1ccccc1)C(=O)N1c3ccccc3CC12 (stereo unspecified) | > 100 µM |  | > 100 µM | > 100 µM |  | > 100 µM | > 100 µM | > 100 µM | > 100 µM |  |  |  |  |  |  |  |  |  | 
FC(F)(F)c1nc(-c2ccccc2)oc1Sc1oc(-c2ccccc2)nc1C(F)(F)F | > 100 µM | > 100 µM | > 100 µM | > 100 µM | > 100 µM |  | > 100 µM | > 100 µM | > 100 µM |  |  |  |  |  |  |  |  |  | 
CC(=O)[O][Bi]([c]1ccccc1)[c]1ccccc1 | 9.6 µM | 5 µM | 30.1 µM | 3.11 µM | 29.9 µM |  | 23.6 µM |  | 23.6 µM | 2.96 µM | 2.27 µM | 15.8 µM | 1.56 µM | 16.1 µM | 30.7 µM | 14.4 µM | 10.9 µM | 11.2 µM | 
Cc1ccc(NC(=O)c2cc3ccccc3cc2O)c(C)c1.Cc1ccc(NC(=O)c2cc3ccccc3cc2[O-])c(C)c1.[Ni+2] | 14.6 µM |  | 15.9 µM | 10.5 µM | 17.2 µM | 88.1 µM | 15.1 µM |  | 7.85 µM | 3.77 µM |  | 3.41 µM | 3.08 µM |  | 5.38 µM | 3.52 µM | 3.12 µM | 2.94 µM | 6.42 µM
CCOC(=O)c1cc(OC(=O)CC)c2c(OC)ccc(OC)c2c1 | > 100 µM |  | > 100 µM | > 100 µM |  | > 100 µM | > 100 µM | > 100 µM |  |  |  |  |  |  |  |  |  |  | 
Nc1c2ccccc2nc2ccccc12 (tested in a mixture with another compound) | 9.4 µM | 77.3 µM | 6.77 µM | 2.73 µM | 6.08 µM | 3.86 µM | 12.2 µM |  | 4.48 µM | 2.45 µM | 2.72 µM | 2.22 µM | 1.17 µM | 2.44 µM | 11.1 µM | 2.13 µM | 1.53 µM | 1.87 µM | 1.99 µM
CC(CN)[C@@H]1CC[C@]2(CO)CC[C@]3(C)[C@H](CC[C@@H]4[C@@]5(C)CCC(N)C(C)(C)[C@@H]5CC[C@]43C)[C@@H]12 (stereo partly specified) | 3.38 µM |  | 3.34 µM | 3.45 µM | 3.29 µM | 3.62 µM | 3.67 µM |  | 3.28 µM | 1.58 µM |  | 1.74 µM | 1.81 µM | 1.74 µM | 3.31 µM | 1.65 µM | 1.91 µM | 1.85 µM | 1.91 µM
CC(C)c1cccc(C(C)C)c1NC(=O)CCC(=O)NN | > 100 µM | > 100 µM | > 100 µM |  | > 100 µM | > 100 µM | > 100 µM |  | > 100 µM |  |  |  |  |  |  |  |  |  | 
Cc1c(CC/C(=N\Nc2ccc([N+](=O)[O-])cc2[N+](=O)[O-])c2ccccc2)c2ccccc2n1C | > 100 µM | > 66.6 µM | > 100 µM | > 100 µM | > 100 µM | > 100 µM | > 100 µM |  | > 100 µM |  |  |  |  |  |  |  |  |  | 
CC1=CC(=O)c2ccc(C)cc2C1=O | 44.3 µM | 12.4 µM | 19.8 µM | 18.5 µM | 38.4 µM | 22.7 µM | 36.6 µM |  | 26.6 µM |  |  |  |  |  | 44.1 µM |  |  |  | 
Cc1nn(C)c2cc(N(C)c3ccnc(Nc4cccc(S(N)(=O)=O)c4)n3)ccc12 | > 25 µM | > 25 µM | > 25 µM | 19.2 µM | > 25 µM | > 25 µM | > 25 µM |  | > 25 µM | 9.36 µM | 7.3 µM | 7.38 µM | 3.46 µM | 7.17 µM | > 25 µM | 6.39 µM | 6.59 µM | 6.54 µM | 9 µM
c1ccc2c(c1)[nH]c1c2ncc2[nH]c3ccccc3c21 | 5.61 µM | 9.45 µM | 10.3 µM | 21 µM | 36.8 µM | 27.7 µM | 13.6 µM |  |  |  |  |  |  |  |  |  |  |  | 
COC(C)(C)[C@H](O)C(O)CC(C)[C@@H]1CCC23CC12CCC1[C@@]2(C)CCC(OC(C)=O)C(C)(C)C2CC(OC2OC(COC(C)=O)C(O)C(O)C2O)[C@]13C (stereo partly specified) | 15 µM and 25.2 µM | 9.67 µM and 17.3 µM | 7.55 µM and 14.1 µM | 6.72 µM and 17.7 µM | 12.4 µM and 21.3 µM | 12.2 µM and 18.9 µM | 10.6 µM and 19.4 µM |  | 11.7 µM and 26 µM | 11.5 µM | 4.08 µM | 4.23 µM | 3.85 µM |  |  | 6.87 µM | 6.29 µM | 11.5 µM | 5.41 µM
C[C@@H]1OCC2(CCN(c3cnc(Sc4ccnc(N)c4Cl)c(N)n3)CC2)[C@@H]1N | > 100 µM | > 100 µM | > 100 µM | > 100 µM | > 100 µM | > 100 µM | > 100 µM |  | > 100 µM | 98.6 µM | > 95.6 µM | 5.46 µM | 7.98 µM | > 100 µM | > 100 µM | 27.7 µM | 27.7 µM | > 100 µM | > 100 µM
COc1cc2c3c(n(CCCN4CCCC(O)C4)c(=O)c2cc1OC)-c1cc2c(cc1C3=O)OCO2 (stereo unspecified) | 0.115 µM | 0.278 µM | 1.49 µM | 8.91 µM | 1.94 µM | 2.28 µM | 0.964 µM |  | 15.1 µM | 0.0277 µM | 0.00738 µM | 0.333 µM | 2.34 µM | 0.0879 µM | 1.15 µM | 0.593 µM | 0.162 µM | 7.74 µM | 0.885 µM
